Data reported in paper PMC8443696, “Structural determinants and regulation of spontaneous activity in GABAA receptors” (Nature Communications, 2021).
Where “and” joins values, the source holds several entries; their conditions need not be identical. Equal values may be shown once. Read-outs that look alike come from different tables or passages of the source.

Tests used:
α4β3γ2L receptors [1] = biological target: T1, α4β3γ2L receptors (Mus musculus, UniProt P22723+P63080+Q9D6F4); assay: GABA concentration-response curves, whole-cell patch clamp in HEK cells; assay type: cell-based
T1 construct: expressed in transfected cells; host or cells: HEK 293
Text: (§1) All components were obtained from Life Technologies.
(§2) Currents were acquired with Clampex ver.
(§3) Cells were voltage clamped at −40 mV.
(§4) All data were normalised to the fitted maximum response.

α4β3δ receptors [2] = biological target: T2, α4β3δ receptors (UniProt P18506+P63080+Q9D6F4); assay: Agonist-evoked whole-cell currents and their modulation by Zn2+ / DS2 in HEK cells; assay type: cell-based, mouse; conditions: GABA alone, individual cells;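 as to GABA current, Supp. Fig. 2b: GABA applied at 0.3 µM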
T2 construct: expressed in transfected cells; host or cells: HEK 293
Text: as §1, §2, §3

α4β3δ receptors [3] = biological target: T2, α4β3δ receptors; assay type: cell-based, mouse
Text: as §1, §2, §3
(§5) For assessment of the efficacy of allosteric modulators on spontaneous activity, compounds were briefly applied (3–5 s) to achieve steady-state currents (IMod). […] The IMod was summed with IPTX (or subtracted for inhibitory modulators) and the Ispont calculated, as described by Eq. (2):2 Ispont(%)=[(IPTX+IMod)/(IPTX+IMax)]×100……………………………………

α4β3δ receptors [4] = biological target: T2, α4β3δ receptors; assay type: cell-based, mouse
Text: as §1, §2, §3, §4

α4β3 receptors = system: T3, α4β3 receptors; assay: Agonist-evoked whole-cell currents and their modulation by Zn2+ / DS2 in HEK cells;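 as to GABA current, Supp. Fig. 2b: GABA applied at 0.3 µM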; assay type: cell-based, mouse; design: GABA current, Supp. Fig. 2b / GABA + DS2 current, Supp. Fig. 2b / GABA current, Supp. Fig. 2a: unit not given here
T3 construct: expressed in transfected cells; host or cells: HEK 293
Text: as §1, §2, §3

α4β3^DNTKδ receptors = α4β3^DNTKδ receptors (UniProt P18506+P63080+Q9D6F4, E204T/G196D/K198N/R205K)
Text: as §1, §2, §3, §4

α4β3^K279Tγ2L receptors = α4β3^K279Tγ2L receptors (Mus musculus, UniProt P22723+P63080+Q9D6F4, K304T)
Text: as §1, §2, §3, §4

α1β3γ2L receptors = system: T4, α1β3γ2L receptors; assay: Quantification of spontaneous activity (Ispont) in HEK cells, whole-cell patch clamp; assay type: cell-based, mouse; conditions: PTX 100 µM, individual cells
T4 construct: expressed in transfected cells; host or cells: HEK 293
Text: as §1, §2, §3, §5

α4β3γ2L receptors [5] = biological target: T1, α4β3γ2L receptors; assay: Agonist-evoked whole-cell currents and their modulation by Zn2+ in HEK cells; assay type: cell-based; conditions: GABA alone, individual cells
Text: as §1, §2, §3

NCCCC(=O)O [GABA, γ-aminobutyric acid]
GABA current normalised to the fitted maximum response (α4β3γ2L receptors [1]; [GABA] 0.01, individual cells): 0.001664 and 0.002276 and 0.001669 and 0.01171 and 0.01147
GABA current normalised to the fitted maximum response (α4β3γ2L receptors [1]; [GABA] 0.03, individual cells): 0.005144 and 0.004138 and 0.00402 and 0.01346 and 0.01822
GABA current normalised to the fitted maximum response (α4β3γ2L receptors [1]; [GABA] 0.1, individual cells): 0.01452 and 0.01076 and 0.01069 and 0.03174 and 0.04395
GABA current normalised to the fitted maximum response (α4β3γ2L receptors [1]; [GABA] 0.3, individual cells): 0.02596 and 0.02427 and 0.06574 and 0.085
GABA current normalised to the fitted maximum response (α4β3γ2L receptors [1]; [GABA] 1, individual cells): 0.09711 and 0.06608 and 0.07868 and 0.1536 and 0.188
GABA current normalised to the fitted maximum response (α4β3γ2L receptors [1]; [GABA] 3, individual cells): 0.2349 and 0.1582 and 0.203 and 0.3143 and 0.3127
GABA current normalised to the fitted maximum response (α4β3γ2L receptors [1]; [GABA] 10, individual cells): 0.4431 and 0.3362 and 0.4922 and 0.6263 and 0.5927
GABA current normalised to the fitted maximum response (α4β3γ2L receptors [1]; [GABA] 30, individual cells): 0.548 and 0.6886 and 0.7844 and 0.7581
GABA current normalised to the fitted maximum response (α4β3γ2L receptors [1]; [GABA] 100, individual cells): 0.7417 and 0.7257 and 0.7724 and 0.8852 and 0.8968
GABA current normalised to the fitted maximum response (α4β3γ2L receptors [1]; [GABA] 300, individual cells): 0.8265 and 0.8069 and 0.8364 and 0.9453 and 0.9104
GABA current normalised to the fitted maximum response (α4β3γ2L receptors [1]; [GABA] 1000, individual cells): 0.9797 and 0.9449 and 0.994 and 1.0249 and 1.018
GABA current normalised to the fitted maximum response (α4β3γ2L receptors [1]; [GABA] 3000, individual cells): 0.9857 and 0.9907 and 1.044 and 0.9972 and 0.9754
nH (α4β3γ2L receptors [1]; individual cells): 0.6867 and 0.7293 and 0.7792 and 0.8713 and 0.7855
Hill coefficient (α4β3γ2L receptors [1]; mean ± SEM, n = 5): 0.8 ± 0.03
GABA current, Supp. Fig. 2a (α4β3δ receptors [2]): 0.41 and 0.73 and 1.32 and 2.78
GABA current, Supp. Fig. 2b (α4β3δ receptors [2]): 0.53 and 0.27 and 0.065 and 0.26 and 0.65
Ispont, IMax from GABA (α4β3δ receptors [3]; α4β3δ GABA (Fig. 1d), GABA 500 µM, PTX 100 µM, individual cells): 6.076% and 14.3782% and 18.0154% and 11.8804% and 19.3061% and 35.4037% and 16.1707%
GABA current normalised to the fitted maximum response (α4β3δ receptors [4]; [GABA] 0.1, individual cells): 0.5073 and 0.405 and 0.6131
nH (α4β3δ receptors [4]; individual cells): 0.63 and 0.57 and 0.45 and 0.59 and 0.53 and 0.44 and 0.46 and 0.51
Hill coefficient (α4β3δ receptors [4]; mean ± SEM, n = 9): 0.5 ± 0.02
Whole-cell current activated by GABA (α4β3 receptors; 500 µM GABA, n = 7): 237 ± 95 pA
GABA current, Supp. Fig. 2a (α4β3 receptors; GABA alone, individual cells): 0.31 and 0.16 and 0.22 and 0.23 and 0.064
GABA current, Supp. Fig. 2b (α4β3 receptors; GABA alone, individual cells): 0.04 and 0.13 and 0.11 and 0.10 and 0.27
GABA current normalised to the fitted maximum response (α4β3^DNTKδ receptors; α4β3DNTKδ, [GABA] 0.01, individual cells): 0.0007434 and 0.002452 and 0.03107 and 0.001383 and 0.00433 and 0.003861 and 0.002036 and 0.01162 and 0 and 0.01893
GABA current normalised to the fitted maximum response (α4β3^DNTKδ receptors; α4β3DNTKδ, [GABA] 0.03, individual cells): 0.007062 and 0.01195 and 0.04826 and 0.01383 and 0.009382 and 0.004413 and 0.007126 and 0.02054 and 0.004552 and 0.04327
GABA current normalised to the fitted maximum response (α4β3^DNTKδ receptors; α4β3DNTKδ, [GABA] 0.1, individual cells): 0.04328 and 0.0495 and 0.09628 and 0.06221 and 0.03922 and 0.04794 and 0.04133 and 0.1252 and 0.03443 and 0.105
GABA current normalised to the fitted maximum response (α4β3^DNTKδ receptors; α4β3DNTKδ, [GABA] 0.3, individual cells): 0.1541 and 0.16 and 0.2541 and 0.193 and 0.1198 and 0.1414 and 0.1295 and 0.114 and 0.2315
GABA current normalised to the fitted maximum response (α4β3^DNTKδ receptors; α4β3DNTKδ, [GABA] 1, individual cells): 0.3807 and 0.3987 and 0.5261 and 0.4351 and 0.4134 and 0.5199 and 0.3786 and 0.5032
GABA current normalised to the fitted maximum response (α4β3^DNTKδ receptors; α4β3DNTKδ, [GABA] 3, individual cells): 0.6642 and 0.6962 and 0.7428 and 0.6422 and 0.5604 and 0.7146 and 0.5958 and 0.7349 and 0.6146 and 0.6907
GABA current normalised to the fitted maximum response (α4β3^DNTKδ receptors; α4β3DNTKδ, [GABA] 10, individual cells): 0.8725 and 0.8838 and 0.9794 and 0.868 and 0.8251 and 0.879 and 0.7932 and 0.8504 and 0.9182 and 0.913
GABA current normalised to the fitted maximum response (α4β3^DNTKδ receptors; α4β3DNTKδ, [GABA] 30, individual cells): 0.9699 and 0.9833 and 0.9744 and 0.9032 and 0.8901 and 0.9131 and 0.9034 and 0.7914 and 0.976 and 0.9404
GABA current normalised to the fitted maximum response (α4β3^DNTKδ receptors; α4β3DNTKδ, [GABA] 100, individual cells): 0.9851 and 0.9946 and 0.9484 and 0.9857 and 0.9989 and 1.0526 and 1.007 and 0.9834 and 1.041 and 0.9979
GABA current normalised to the fitted maximum response (α4β3^DNTKδ receptors; α4β3DNTKδ, [GABA] 300, individual cells): 0.994 and 0.9896 and 0.9955 and 1.01 and 0.9818 and 1.0044 and 0.9828 and 1.081 and 0.9165 and 0.972
nH (α4β3^DNTKδ receptors; α4β3DNTKδ, individual cells): 0.91 and 0.96 and 1.1 and 0.94 and 0.75 and 1.12 and 1.06 and 1
Hill coefficient (α4β3^DNTKδ receptors; α4β3^DNTKδ, mean ± SEM, n = 10): 1.0 ± 0.04
GABA current normalised to the fitted maximum response (α4β3^K279Tγ2L receptors; α4β3K279Tγ2L, [GABA] 0.001, individual cells): 0.2519 and 0 (3×) and 0.1524 and 0.248
GABA current normalised to the fitted maximum response (α4β3^K279Tγ2L receptors; α4β3K279Tγ2L, [GABA] 0.003, individual cells): 0.1404 and 0.2434 and 0.2001 and 0.06943 and 0 (2×)
GABA current normalised to the fitted maximum response (α4β3^K279Tγ2L receptors; α4β3K279Tγ2L, [GABA] 0.01, individual cells): 0.2519 and 0.1217 and 0.166 and 0.124 and 0.0823 and 0.03949
GABA current normalised to the fitted maximum response (α4β3^K279Tγ2L receptors; α4β3K279Tγ2L, [GABA] 0.03, individual cells): 0.2267 and 0.2011 and 0.2911 and 0.2232 and 0.2097 and 0.1075
GABA current normalised to the fitted maximum response (α4β3^K279Tγ2L receptors; α4β3K279Tγ2L, [GABA] 0.1, individual cells): 0.3277 and 0.4723 and 0.5922 and 0.2125 and 0.4931 and 0.3266
GABA current normalised to the fitted maximum response (α4β3^K279Tγ2L receptors; α4β3K279Tγ2L, [GABA] 0.3, individual cells): 0.407 and 0.5504 and 0.3093 and 1.165 and 0.3595
GABA current normalised to the fitted maximum response (α4β3^K279Tγ2L receptors; α4β3K279Tγ2L, [GABA] 1, individual cells): 0.6167 and 0.8427 and 0.9144 and 0.4437 and 0.6991 and 0.6708
GABA current normalised to the fitted maximum response (α4β3^K279Tγ2L receptors; α4β3K279Tγ2L, [GABA] 3, individual cells): 0.7288
nH (α4β3^K279Tγ2L receptors; α4β3K279Tγ2L, individual cells): 0.3987 and 0.6455 and 0.6824 and 0.44 and 1.925 and 0.7169
Hill coefficient (α4β3^K279Tγ2L receptors; α4β3^K279Tγ2L, mean ± SEM, n = 6): 0.8 ± 0.2
Ispont, IMax from GABA (α1β3γ2L receptors; α1β3γ2L GABA (Fig. 1d), GABA 500 µM): 0.9134% and 0.3206% and 5.267% and 3.501% and 0.7067% and 1.417%
GABA current, Supp. Fig. 2a (α4β3γ2L receptors [5]): 1.69 and 2.20 and 3.55 and 12.70

Oc1noc2c1CCNC2 [THIP, 4,5,6,7-tetrahydroisoxazolo[5,4-c]pyridin-3-ol]
Ispont, IMax from THIP (α4β3δ receptors [3]; α4β3δ THIP (Fig. 1d), THIP 3 mM, PTX 100 µM, individual cells): 3.988% and 7.572% and 10.0793% and 6.822% and 17.8571% and 28.6432% and 15.8524%
IMax compared to GABA (α4β3δ receptors [3]; α4β3δ, THIP 3 mM): larger
Ispont, IMax from THIP (α1β3γ2L receptors; α1β3γ2L THIP (Fig. 1d), THIP 3 mM): 1.055% and 0.4509% and 8.753% and 3.449% and 0.8828% and 1.773%
